Structures are written as SMILES. Where two headings read alike, the source gives them in different places.

The conditions of series [1]: from PAMPA-BBB Pe.
Protocol: Afterwards, the acceptor filter plate was carefully placed on the donor plate to make the coated membrane touch both donor solution and acceptor buffer. […] Pe was calculated by the following expression: Pe = {−VdVa/[(Vd + Va)At]}ln (1-drugacceptor/drugequilibrium), where Vd is the volume of donor well, Va is volume in acceptor well, A is the filter area, t is the permeation time, drugacceptor is the absorbance obtained in the acceptor well and drugequilibrium is the theoretical equilibrium absorbance. Each compound was analysed at five wavelengths in four wells at least three independent runs, and the results were expressed as mean ± SD.
A further series is described as follows: in vitro. Conditions: PAMPA.
Another series addresses T1, eqBuChE (Equus caballus, UniProt P81908).
T1 construct: eqBuChE (from equine serum); purchased Sigma-Aldrich (St. Louis, MO, USA); host or cells: equine serum
The series can be described thus: In vitro inhibition of eqBuChE (Ellman method). The series is classed as biochemical, equine. Conditions: for inhibition at 10 µM: read-out: eqBuChE Inhibition (%).

A further series addresses T2, eeAChE (Electrophorus electricus, UniProt O42275).
T2 construct: eeAChE (from electric eel); purchased Sigma-Aldrich (St. Louis, MO, USA); host or cells: electric eel
The series can be described thus: In vitro inhibition of eeAChE (Ellman method). The format is biochemical, electric eel. Conditions: for inhibition at 10 µM: read-out: eeAChE Inhibition (%), inhibitor at 10 μM.

A further series deals with hAChE (Homo sapiens, UniProt P22303). The series can be described thus: In vitro inhibition of hAChE (Ellman method). The series is classed as biochemical. The arrangement: Acetylcholinesterase (AChE, from electric eel and human erythrocytes); purchased Sigma-Aldrich (St. Louis, MO, USA); host or cells: human erythrocytes.
The target of series [2] is T3, AChE-induced Aβ1-42 aggregation (Electrophorus electricus, UniProt O42275).
T3 construct: eeAChE (from electric eel); purchased eeAChE: Sigma-Aldrich (St. Louis, MO, USA); Aβ1-42: Royobiotech Co., Ltd (Shanghai, China)
The series can be described thus: Inhibition of AChE-induced Aβ1-42 aggregation (ThT assay). Conditions: inhibitor 100 μM; thioflavin-T fluorescence. The format is biochemical.
Protocol: 1, 1, 1, 3, 3, 3-hexafluoro-2-propanol (HFIP) and Thioflavin T (ThT) were obtained from TCI (Shanghai) Development. β-Amyloid1-42 (Aβ1-42), supplied as trifluoroacetate salt, and eeAChE were purchased from Royobiotech Co., Ltd (Shanghai, China) and Sigma-Aldrich (St. Louis, MO, USA), respectively. For co-incubation experiments, aliquots of Aβ1-42 peptide and AChE in presence or absence of the test compounds were incubated for 48 h at 37 °C. […] The percent inhibition of the AChE-induced Aβ aggregation due to the presence of inhibitor was calculated by the following formula: 100 – (IFi/IFo*100), where IFi and IFo are the fluorescence intensities obtained for Aβ1-42 aggregation in the presence and in the absence of inhibitor, respectively. Each assay was run in triplicate and each reaction was repeated at least three independent times.

In series [3] the target is T4, self-induced Aβ1-42 aggregation (Homo sapiens, UniProt P05067).
T4 construct: Aβ1-42 was obtained from Royobiotech Co., Ltd (Shanghai, China); purchased Royobiotech Co., Ltd (Shanghai, China)
The series can be described thus: Inhibition of self-induced Aβ1-42 aggregation (ThT assay). The series is classed as biochemical. The following applies: read-out: Inhibition of Aβ1–42 aggregation (%) Self-induced. On the procedure:
The inhibitory activities of compounds 4c-f and 9a-b on self-induced Aβ1-42 aggregation were also measured by the ThT assay. HFIP and ThT were purchased from TCI (Shanghai) Development. Aβ1-42 was obtained from Royobiotech Co., Ltd (Shanghai, China). The monomeric Aβ1-42 samples were prepared by HFIP and diluted with a 50 mM phosphate buffer (pH 7.4) to give a 25 μM solution. The test compound was dissolved in DMSO (250 μM) for storage and needed not to be diluted prior to use. […]. Then, 200 μL of 5 μM ThT in 50 mM glycine-NaOH buffer (pH 8.0) was added, and the percent inhibition was calculated by the method same as that of AChE-induced Aβ1–42 experiment.

The mark [4] stands for this setting: means ± SD of three experiments.

T4 sequence (P05067 672-713): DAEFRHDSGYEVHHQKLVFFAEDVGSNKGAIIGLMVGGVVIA
T3 sequence (O42275 24-633): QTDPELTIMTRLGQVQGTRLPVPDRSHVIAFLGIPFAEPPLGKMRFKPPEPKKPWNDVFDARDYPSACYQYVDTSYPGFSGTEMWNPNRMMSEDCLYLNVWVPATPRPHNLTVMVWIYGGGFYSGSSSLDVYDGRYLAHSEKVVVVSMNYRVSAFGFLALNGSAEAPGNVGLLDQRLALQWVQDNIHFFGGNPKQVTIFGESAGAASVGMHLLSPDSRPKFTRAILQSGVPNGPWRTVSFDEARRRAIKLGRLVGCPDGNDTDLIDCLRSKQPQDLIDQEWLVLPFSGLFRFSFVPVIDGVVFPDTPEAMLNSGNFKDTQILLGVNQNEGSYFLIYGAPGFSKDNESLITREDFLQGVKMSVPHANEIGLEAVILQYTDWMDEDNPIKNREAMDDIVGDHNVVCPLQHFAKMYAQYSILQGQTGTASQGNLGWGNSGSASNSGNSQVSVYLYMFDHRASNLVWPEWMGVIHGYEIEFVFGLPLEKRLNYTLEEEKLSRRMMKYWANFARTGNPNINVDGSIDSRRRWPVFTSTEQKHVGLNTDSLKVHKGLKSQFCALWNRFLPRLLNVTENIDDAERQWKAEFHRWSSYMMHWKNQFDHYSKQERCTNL
T2 sequence (O42275 24-633): as above
Sequence of hAChE (P22303 32-617 isoform P22303-2 limits assumed): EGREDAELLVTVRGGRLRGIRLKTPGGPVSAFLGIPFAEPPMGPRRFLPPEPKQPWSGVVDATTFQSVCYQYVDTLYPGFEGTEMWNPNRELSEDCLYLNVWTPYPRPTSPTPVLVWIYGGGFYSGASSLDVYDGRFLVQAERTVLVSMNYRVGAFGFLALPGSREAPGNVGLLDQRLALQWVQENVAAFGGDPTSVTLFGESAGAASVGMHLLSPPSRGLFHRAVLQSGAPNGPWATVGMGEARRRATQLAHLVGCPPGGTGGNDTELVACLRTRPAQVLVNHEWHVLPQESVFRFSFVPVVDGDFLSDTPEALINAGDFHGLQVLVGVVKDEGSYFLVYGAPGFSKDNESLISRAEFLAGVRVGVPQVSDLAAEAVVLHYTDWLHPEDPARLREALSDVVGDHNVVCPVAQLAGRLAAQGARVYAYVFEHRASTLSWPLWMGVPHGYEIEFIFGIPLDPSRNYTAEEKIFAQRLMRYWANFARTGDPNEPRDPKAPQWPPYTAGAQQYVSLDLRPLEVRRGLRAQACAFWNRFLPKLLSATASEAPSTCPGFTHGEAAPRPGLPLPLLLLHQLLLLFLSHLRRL
T1 sequence (P81908 whole entry): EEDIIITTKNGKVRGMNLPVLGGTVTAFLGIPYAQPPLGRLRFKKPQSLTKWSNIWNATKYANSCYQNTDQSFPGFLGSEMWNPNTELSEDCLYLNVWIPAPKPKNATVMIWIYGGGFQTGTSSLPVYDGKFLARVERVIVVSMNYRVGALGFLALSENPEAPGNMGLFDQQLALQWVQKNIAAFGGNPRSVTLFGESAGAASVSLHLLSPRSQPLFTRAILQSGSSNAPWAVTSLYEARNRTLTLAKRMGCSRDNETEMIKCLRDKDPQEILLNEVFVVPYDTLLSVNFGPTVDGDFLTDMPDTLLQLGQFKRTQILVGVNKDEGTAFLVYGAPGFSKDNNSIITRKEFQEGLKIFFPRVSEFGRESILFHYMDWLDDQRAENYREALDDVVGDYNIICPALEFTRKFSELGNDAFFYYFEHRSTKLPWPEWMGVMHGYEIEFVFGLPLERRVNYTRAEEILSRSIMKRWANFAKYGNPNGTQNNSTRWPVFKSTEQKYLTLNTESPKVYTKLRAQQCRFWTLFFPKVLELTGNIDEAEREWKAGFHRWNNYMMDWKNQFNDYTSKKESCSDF
Protocol for eeAChE: (§1) The in vitro inhibitory activities of test compounds against AChE and BuChE were determined by the spectrophotometric method of Ellman[25]. […] For each assay, 160 μL of 1.5 mM DTNB, 50 μL of AChE (0.22 U/mL for eeAChE; 0.05 U/mL for hAChE) or eqBuChE (0.12 U/mL) were incubated with 10 μL of different concentrations of test compounds at 37 °C for 6 min.
Protocol for eqBuChE: as §1
Protocol for hAChE: as §1

As for `O=c1ccc2ccc(OCCSC(=S)N3CCCCC3)cc2[nH]1` [4a, 2-((2-oxo-1,2-dihydroquinolin-7-yl)oxy)ethyl piperidine-1-carbodithioate], the “Prediction of penetration into CNS” value in series [1] is recorded as “CNS+ (CNS + is predicted as high BBB permeation with Pe (×10^6 cm/s) > 3.33)”. In “in vitro”, this compound gave a Papp at 18 h, 25 μg/mL of 8.57 ± 1.23 ×10⁻⁶ cm/s. The inhibition at 10 µM came out at 16.7 ± 2.36% on eqBuChE and 45.3 ± 0.35% on eeAChE (setting [4]).

Take `O=c1ccc2ccc(OCCCSC(=S)N3CCCCC3)cc2[nH]1` [4b, 3-((2-oxo-1,2-dihydroquinolin-7-yl)oxy)propyl piperidine-1-carbodithioate]: in series [1], the “Prediction of penetration into CNS” value is “CNS+ (CNS + is predicted as high BBB permeation with Pe (×10^6 cm/s) > 3.33)”. The compound also yielded a Papp at 18 h, 25 μg/mL in “in vitro” of 8.78 ± 1.11 ×10⁻⁶ cm/s. Also, the inhibition at 10 µM at eqBuChE came out at 16.6 ± 4.01%. The compound further yielded an IC50 at eeAChE of 3960 ± 710 nM.

Take `O=c1ccc2ccc(OCCCCCSC(=S)N3CCCCC3)cc2[nH]1` [4d, 5-((2-oxo-1,2-dihydroquinolin-7-yl)oxy)pentyl piperidine-1-carbodithioate]: the figures for the concentration for half-maximal inhibition (IC50) at hAChE and on eeAChE were 570 ± 10 nM and 240 ± 20 nM, respectively. Moreover, the “Prediction of penetration into CNS” value in series [1] is “CNS+ (CNS + is predicted as high BBB permeation with Pe (×10^6 cm/s) > 3.33)”. In series [2], this compound had an inhibition at 100 µM of 24.1 ± 3.04%. The apparent permeability (Papp) at 18 h, 25 μg/mL in “in vitro” stood at 8.82 ± 1.34 ×10⁻⁶ cm/s. Besides, the inhibition at 10 µM at eqBuChE was 20.9 ± 2.61%. Besides, in series [3], the inhibition at 25 µM turned out to be 26 ± 3.01%.

As for `O=c1ccc2ccc(OCCCCCCSC(=S)N3CCCCC3)cc2[nH]1` [4e, 6-((2-oxo-1,2-dihydroquinolin-7-yl)oxy)hexyl piperidine-1-carbodithioate], the half-inhibitory concentration (IC50) was found to be 380 ± 20 nM against hAChE and 350 ± 20 nM at eeAChE. Further, the “Prediction of penetration into CNS” value in series [1] is on record as “CNS+ (CNS + is predicted as high BBB permeation with Pe (×10^6 cm/s) > 3.33)”. The compound also had an inhibition at 100 µM in series [2] of 20.3 ± 2.21%. The apparent permeability coefficient (Papp) at 18 h, 25 μg/mL in the series “in vitro” came to 9.85 ± 0.98 ×10⁻⁶ cm/s. On eqBuChE, the inhibition at 10 µM worked out at 17.5 ± 2.17%. In addition, the inhibition at 25 µM in series [3] was found to be 25.8 ± 1.43%.

On to `CC1CCN(C(=S)SCCCCOc2ccc3ccc(=O)[nH]c3c2)CC1` [4f, 4-((2-oxo-1,2-dihydroquinolin-7-yl)oxy)butyl 4-methylpiperidine-1-carbodithio-ate], for which the IC50 stood at 1210 ± 330 nM on hAChE and 690 ± 220 nM against eeAChE. In addition, the “Prediction of penetration into CNS” value in series [1] is recorded as “CNS+ (CNS + is predicted as high BBB permeation with Pe (×10^6 cm/s) > 3.33)”. At 100 µM the inhibition in series [2] was 12.1 ± 3.18%. This compound gave an apparent permeability coefficient (Papp) at 18 h, 25 μg/mL in “in vitro” of 6.3 ± 0.86 ×10⁻⁶ cm/s. Further, the inhibition at 10 µM on eqBuChE worked out at 37.2 ± 1.22%. In addition, the inhibition at 25 µM in series [3] came to 20.4 ± 3.22%. The “fold less inhibitory activity than compound 4c on AChE” value on eeAChE (ratio of eeAChE IC50 values) came out at 3 fold.

As for `CC(C)C1CCN(C(=S)SCCCCOc2ccc3ccc(=O)[nH]c3c2)CC1` [4g, 4-((2-oxo-1,2-dihydroquinolin-7-yl)oxy)butyl 4-isopropylpiperidine-1-carbodithi-oate], the “Prediction of penetration into CNS” value in series [1] is reported as “CNS+ (CNS + is predicted as high BBB permeation with Pe (×10^6 cm/s) > 3.33)”. Moreover, the apparent permeability coefficient (Papp) at 18 h, 25 μg/mL in “in vitro” is 7.14 ± 1.97 ×10⁻⁶ cm/s. For the same compound, the inhibition at 10 µM at eqBuChE is 31.4 ± 3.15%. The compound further came in with a concentration for half-maximal inhibition (IC50) at eeAChE of 9610 ± 1120 nM.

For `O=c1ccc2ccc(OCCCCSC(=S)N3CCC(N4CCCCC4)CC3)cc2[nH]1` [4h, 4-((2-oxo-1,2-dihydroquinolin-7-yl)oxy)butyl [1,4′-bipiperidine]-1′-carbodithio-ate], the “Prediction of penetration into CNS” value in series [1] was “CNS+ (CNS + is predicted as high BBB permeation with Pe (×10^6 cm/s) > 3.33)”. In “in vitro”, the apparent permeability coefficient (Papp) at 18 h, 25 μg/mL was 6.42 ± 1.02 ×10⁻⁶ cm/s. Moreover, the results for the concentration for half-maximal inhibition (IC50) on eqBuChE and against eeAChE were 2000 ± 230 nM and 3800 ± 350 nM, respectively.

With `O=c1ccc2ccc(OCCCCSC(=S)N3CCC(O)CC3)cc2[nH]1` [4i, 4-((2-oxo-1,2-dihydroquinolin-7-yl)oxy)butyl 4-hydroxypiperidine-1-carbodithio-ate], the “Prediction of penetration into CNS” value in series [1] is “CNS± (CNS ± is uncertain for BBB permeation with 1.51 < Pe (×10^6 cm/s) < 3.33)”. The compound also displayed an apparent permeability coefficient (Papp) at 18 h, 25 μg/mL in “in vitro” of 2.83 ± 0.65 ×10⁻⁶ cm/s. In addition, the inhibition at 10 µM at eqBuChE worked out at 15.8 ± 2.45%; on eeAChE (setting [4]) it was 20.2 ± 3.27%.

With `O=c1ccc2ccc(OCCCCSC(=S)N3CCC(CO)CC3)cc2[nH]1` [4j, 4-((2-oxo-1,2-dihydroquinolin-7-yl)oxy)butyl 4-(hydroxymethyl)piperidine-1-ca-rbodithioate], the “Prediction of penetration into CNS” value in series [1] is on record as “CNS± (CNS ± is uncertain for BBB permeation with 1.51 < Pe (×10^6 cm/s) < 3.33)”. In “in vitro”, this compound returned a Papp at 18 h, 25 μg/mL of 3.25 ± 0.82 ×10⁻⁶ cm/s. In addition, the inhibition at 10 µM on eqBuChE turned out to be 23.9 ± 2.03%; on eeAChE (setting [4]) it was 14.5 ± 2.44%.

Consider `CN1CCN(C(=S)SCCCCOc2ccc3ccc(=O)[nH]c3c2)CC1` [4k, 4-((2-oxo-1,2-dihydroquinolin-7-yl)oxy)butyl 4-methylpiperazine-1-car-bodithioate], for which the “Prediction of penetration into CNS” value in series [1] is listed as “CNS+ (CNS + is predicted as high BBB permeation with Pe (×10^6 cm/s) > 3.33)”. For the same compound, in “in vitro”, the apparent permeability (Papp) at 18 h, 25 μg/mL turned out to be 4.54 ± 0.84 ×10⁻⁶ cm/s. Moreover, the results for the inhibition at 10 µM at eqBuChE and at eeAChE (setting [4]) were 28.6 ± 3.44% and 23.1 ± 5.54%, respectively.

Regarding `O=c1ccc2ccc(OCCCCSC(=S)N3CCOCC3)cc2[nH]1` [4l, 4-((2-oxo-1,2-dihydroquinolin-7-yl)oxy)butyl morpholine-4-carbodithioate], the “Prediction of penetration into CNS” value in series [1] is recorded as “CNS+ (CNS + is predicted as high BBB permeation with Pe (×10^6 cm/s) > 3.33)”. Also, the apparent permeability (Papp) at 18 h, 25 μg/mL in “in vitro” is 7.35 ± 1.05 ×10⁻⁶ cm/s. Moreover, the inhibition at 10 µM on eqBuChE is 30.5 ± 4.11%; on eeAChE (setting [4]) it was 12.3 ± 1.76%.

As for `O=c1ccc2ccc(OCCCCSC(=S)N3CCCC3)cc2[nH]1` [4m, 4-((2-oxo-1,2-dihydroquinolin-7-yl)oxy)butyl pyrrolidine-1-carbodithioate], the “Prediction of penetration into CNS” value in series [1] is “CNS+ (CNS + is predicted as high BBB permeation with Pe (×10^6 cm/s) > 3.33)”. This compound gave a Papp at 18 h, 25 μg/mL in the series “in vitro” of 10 ± 2.63 ×10⁻⁶ cm/s. Further, the inhibition at 10 µM on eqBuChE was 7.63 ± 0.92%; on eeAChE (setting [4]), less than 50%. At eeAChE (inhibitor at 10 μM, means ± SD of three experiments, 10 µM), the “eeAChE Inhibition (%)” value amounted to 31.43 ± 1.65%.

On to `Cc1cc(=O)[nH]c2cc(OCCCCSC(=S)N3CCCCC3)ccc12` [9a, 4-((4-methyl-2-oxo-1,2-dihydroquinolin-7-yl)oxy)butylpiperidine-1-carbodithioate], for which the IC50 came out at 760 ± 100 nM against hAChE and 300 ± 120 nM on eeAChE. Moreover, the “Prediction of penetration into CNS” value in series [1] is “CNS+ (CNS + is predicted as high BBB permeation with Pe (×10^6 cm/s) > 3.33)”. This compound also came in with an inhibition at 100 µM in series [2] of 14.2 ± 2.85%. In addition, the Papp at 18 h, 25 μg/mL in the series “in vitro” was 8.79 ± 2.1 ×10⁻⁶ cm/s. For the same compound, the inhibition at 10 µM on eqBuChE was 18.3 ± 3.15%. In series [3], the inhibition at 25 µM turned out to be 33.4 ± 4.85%.

With `Cc1c(C)c2ccc(OCCCCSC(=S)N3CCCCC3)cc2[nH]c1=O` [9b, 4-((3,4-dimethyl-2-oxo-1,2-dihydroquinolin-7-yl)oxy)butylpiperidine-1-carbodithioate], the 50% inhibitory concentration (IC50) at hAChE was 390 ± 10 nM; on eeAChE, 340 ± 10 nM. Besides, the “Prediction of penetration into CNS” value in series [1] is recorded as “CNS+ (CNS + is predicted as high BBB permeation with Pe (×10^6 cm/s) > 3.33)”. Moreover, in series [2], the inhibition at 100 µM turned out to be 24.4 ± 3.03%. The Papp at 18 h, 25 μg/mL in “in vitro” worked out at 8.67 ± 1.76 ×10⁻⁶ cm/s. Also, the inhibition at 10 µM at eqBuChE turned out to be 21.2 ± 1.6%. In addition, the inhibition at 25 µM in series [3] worked out at 35.3 ± 2.17%.

As to `COc1cc(/C=C/C(=O)CC(=O)/C=C/c2ccc(O)c(OC)c2)ccc1O` [Curcumin, reference compound], in series [3] (inhibitor 25 μM, thioflavin-T fluorescence), the inhibition at 25 µM was 37.3 ± 2.76%.

In turn, `CC(=O)[C@H]1CC[C@H]2[C@@H]3CCC4=CC(=O)CC[C@]4(C)[C@H]3CC[C@]12C` [Progesterone, reference compound] registered a Papp at 18 h, 25 μg/mL in the series “in vitro” of 10.4 ± 1.9 ×10⁻⁶ cm/s.

The values above are taken from PMC6844382, “Design, synthesis and evaluation of quinolinone derivatives containing dithiocarbamate moiety as multifunctional AChE inhibitors for the treatment of Alzheimer’s disease” (Journal of Enzyme Inhibition and Medicinal Chemistry, 2019).
